Data published in publication PMC8541353, “A Novel Phenylpyrrolidine Derivative: Synthesis and Effect on Cognitive Functions in Rats with Experimental Ishemic Stroke” (Molecules, 2021).
“And” between values parts separate entries of the source, which are not always exact repeats. Equal entries are not always repeated. Where two headings read alike, the source gives them in different places.

How the values were obtained:
[1] = test system: newborn rat cortical neurons; assay: Glutamate-induced excitotoxicity in newborn rat cortical neuron culture, MTT cell viability; format: cell-based, Wistar rats
Source text: To confirm the predicted biological activity, we adopted a glutamate-induced excitotoxicity in the rat cortical neurons model. This work was based on previous findings that glutamate is a well-known excitatory CNS neurotransmitter, which contributes to normal neural transmission, development, differentiation, and plasticity. However, excessive extracellular glutamate levels cause uncontrolled continuous neuron depolarization, which can lead to neuronal death. Excitotoxicity is associated with several neurodegenerative conditions, including Huntington’s disease, Alzheimer’s disease, amyotrophic lateral sclerosis, Parkinson’s disease, and stroke/traumatic brain injury. To see whether compound 1 has neuroprotective effects, we studied the influence of compound 1 in glutamate-treated cortical neurons isolated from newborn Wistar rats (0–1 day).
The primary culture of newborn rat cortical neurons was obtained as previously described. Briefly, cortical neurons were collected from newborn Wistar rats and inoculated onto culture plates (4 × 10^5 cell cm^–2). […]
The cell viability was measured according to the cell ability of tetrazolium dye reduction. […] The formazan absorption at 492 nm was measured using a Zenyth 1100 (Anthos Labtec Instruments, GmbH, Salzburg, Austria) microplate reader.

[2] = Concentration of compound 1 in plasma, striatum and cortex by HPLC-MS (intact and MCAO rats); format: in vivo; settings: for concentration at 60 min: rat
Method: The calculated data are consistent with the experimental data in intact animals. The concentration of compound 1 was determined in the striatum and frontal cortex by HPLC MS. Sixty minutes after the intravenous administration of compound 1, we anesthetized the rats with isoflurane. Afterward, we drained the blood from the heart, opened the chest, dissected the heart muscle, incised the left atrial appendage, and inserted an 18G needle into the right atrium. The pulmonary circulation was washed with 350 mL of 0.9% NaCl containing 1.0 mL of heparin. After the washing procedure, the rat was decapitated and the brain was removed and dissected. We determined the concentrations of compound 1 using an HPLC MS system. The concentration of compound 1 in plasma and the striatum differed by 650 times, and the concentration in plasma and the cortex differed by 630 times (Table 6).
Brain. A brain sample weighing 50 mg (± 2 mg) was placed in 2 mL tubes and 10 μL of an aqueous solution of an internal standard with a concentration of 1 μg mL^−1 was added, then 140 μL of a 1% aqueous solution of formic acid was added and homogenized. Brain samples were ground in a Precellys Evolution homogenizer using 2 mL tubes with ceramic balls at room temperature at a speed of 4500 vibrations min^−1 for 2 cycles of 90 s. After that, 400 μL of chloroform was added. The sample was shaken and centrifuged at 10,621 g for 2 min. The aqueous layer of the liquid was taken and 400 μL of chloroform was added. The sample was shaken and centrifuged at 10,621 g for 2 min. The supernatant was taken for analysis.
Plasma. A total of 10 μL of an aqueous solution of an internal standard with a concentration of 1 mg mL^−1 was added to 50 μL of plasma. A total of10 μL of formic acid and 150 μL of a 0.2% solution of formic acid in methanol was added to the solution. A total of 780 μL of deionized water was added to the resulting solution. The solution was centrifuged at 10,621 g for 2 min. The supernatant was collected and analyzed.
Analyses were performed by a Shimadzu 20 (Shimadzu, Kyoto, Japan) system consisting of HPLC coupled to triple quadrupole mass spectrometer Shimadzu 8040 (Shimadzu, Japan). The chromatographic separation was performed on Discovery C18 column 3 × 150 mm, 5 μm in a gradient mode with mobile phase components A (0.01M ammonium acetate in water) and B (acetonitrile). The gradient cycle was performed in the following way: 0–6 min 5–40% B, 6.01–10 min 40–95%, 10.01–15 min, isocratic elution with 100% B, and then returned to the initial condition. The column temperature was 60 °C. The sample injection volume was 20 μL. The autosampler temperature was 8 °C.
The electrospray ionization (ESI) source was set in positive ionization mode. Multiple reaction monitoring was used to perform mass spectrometric quantification. MS conditions: interface voltage 3,500 V ([…]), nebulizer gas (nitrogen) flow 2.5 l min^−1, drying gas (nitrogen) flow 15 L min^−1, CID gas pressure 230 kPa, DL temperature 200 °C, and heat block temperature 500 °C. High-purity argon was used as collision gas. The precursor and product ions (m/z) of target analytes were 327.10 and 174.10 for compound 1 and 236.10 and 154.15 for internal standard; collision energy was −20 V for both compounds.

For `O=C(CN1CC(c2ccccc2)CC1=O)NCCS(=O)(=O)[O-].[K+]` (centres unmarked) [Compound 1, potassium 2-[2-(2-oxo-4-phenylpyrrolidin-1-yl)acetamido]ethane-1-sulfonate], the “Increase of cell survival rate” value ([1]; 50 µM compound 1 after exposure to 50 µM glutamate, MTT, maximum protective effect) was 37%, the “Neuroprotective effect at higher dose” value ([1]; 100 μM compound 1) was “decreases” and the “Increase of BBB permeability after MCAO” value ([2]; 24 h after MCAO vs intact animals) was about 10 fold. The “Concentration in the brain” value ([2]; intact animals) was 0.3 μg g^–1, the Cplasma/Ccortex ([2]; intact animals) was 630 and 630.9 ± 98.6 and the Cplasma/Cstriatum ([2]; intact animals) was 650 and 651.2 ± 52.0. It also gave a concentration at 60 min ([2]; brain, intravenous, intact animals, read-out: Concentration in the brain) of 300 ng/g, a concentration at 60 min ([2]; brain, intravenous, rats with hemispheric stroke (24 h after MCAO), read-out: Concentration in the brain) of 2600 ng/g and a concentration at 60 min ([2]; cortex, iv, intact animals, 60 min after intravenous administration, read-out: Ccortex) of 255000 ± 78200 ng/g. It also gave a concentration at 60 min ([2]; plasma, intravenous, rats 24 h after MCAO, read-out: Cplasma) of 13800 ± 3600 ng/mL, a concentration at 60 min ([2]; plasma, iv, intact animals, 60 min after intravenous administration, read-out: Cplasma) of 16100 ± 5800 ng/mL and a concentration at 60 min ([2]; striatum, iv, intact animals, 60 min after intravenous administration, read-out: Cstriatum) of 247000 ± 42600 ng/g. It also gave a Cplasma/Ccortex ([2]; rats 24 h after MCAO) of 37.9 ± 6.0 and a Cplasma/Cstriatum ([2]; rats 24 h after MCAO) of 89.7 ± 9.4.
